Read-outs that look alike come from different tables or passages of the source.
Tests used:
XIAP-BIR2 = XIAP-BIR2 (Homo sapiens (Human), UniProt P98170); assay: BIR binding assay (FRET competition), XIAP BIR2
Method: The BIR domain binding assays are FRET based competition assays that utilize His-tagged versions of each of the BIR2 and BIR3 domains from cIAP1, cIAP2, and XIAP (each domain assayed separately) each at a custom optimal concentration and a probe, 200 nM SMAC/DIABLO peptide AVPIAQKSE labelled with AlexaFluor647 (part #crb 1110326h, Discovery Peptides). The assay is conducted in 50 mM HEPES, […], 1 mM CHAPS, 5% Glycerol, 1 mM DTT, in dI water with a final pH of 7.4 and final volume of 20 uL. Final protein domain concentrations are: 50 nM cIAP1-BIR3 (Part #APT-11-370 Reaction Biology), 100 nM XIAP-BIR3 (Part #APT-11-351 Reaction Biology), 200 nM XIAP-BIR2 (Part #APT-11-470 Reaction Biology), 325 nM cIAP2-BIR2 (Part #APT-11-489 Reaction Biology), 50 nM cIAP2-BIR3 (Part #APT-11-372 Reaction Biology), 325 nM cIAP1-BIR2 (Part #APT-11-487 Reaction Biology). Compounds were plated using a HP Tecan D300 printer in a final total volume of 202 nl and DMSO concentration normalized across the 15-point, 3-fold dilution series. Peptide and probe were prepared at 2× relative to the concentrations above in binding buffer, 10 uL added to the prepared compound plates, and incubated for 60 minutes. LANCE Eu-W1024 (part #AD0401 Perkin Elmer #, vendor) was prepared at 2× concentration in binding buffer for final concentration of 2 nM, 10 uL added to each well, and plates incubated for 30 minutes. Plates were read on an ENVISION multifunction plate reader with […] laser excitation to obtain the 615 nm/665 nm emission ratio as indicative of probe:protein proximity. Data was analyzed using GraphPad PRISM and curves fit using log(inhibitor) vs. response—Variable slope (four […] method to obtain IC50 and pIC50 values.

[1] = tested on: Jurkat HIV-luciferase clones; assay: Jurkat latency reversal assay; type: cell-based; settings: Homo sapiens, 48 h; Jurkat latency reversal assay potency; read-out: Jurkat pEC50 (converted)
How it was run: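 EC50 and maximal activation versus vehicle were derived by four-parameter logistic regression of luciferase luminescence. The luminescence was induced in pooled Jurkat HIV-luciferase clones C16, 115 and N6 (5,000 cells/well) after 48 h at 37° C with duplicate 14-point, 3-fold dilutions starting at 10 μM (0.5% DMSO).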

cIAP2-BIR2 = cIAP2-BIR2 (Homo sapiens (Human), UniProt Q13489); assay: BIR binding assay (FRET competition), cIAP2 BIR2
Chain of cIAP2-BIR2 (Q13489 158-242): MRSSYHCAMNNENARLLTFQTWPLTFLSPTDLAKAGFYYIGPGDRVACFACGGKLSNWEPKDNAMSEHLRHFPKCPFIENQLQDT
How it was run: (§1)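 Each domain is run separately at its own level: 50 nM cIAP1-BIR3, 100 nM XIAP-BIR3, 325 nM for cIAP1-BIR2 or cIAP2-BIR2. Probe is a 200 nM fluorescent SMAC peptide, and the value is IC50 from FRET competition.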

cIAP2-BIR3 = cIAP2-BIR3 (Homo sapiens (Human), UniProt Q13489); assay: BIR binding assay (FRET competition), cIAP2 BIR3; settings: for cIAP2 BIR3 vs BIR2 separation window: fold separation (FS) for cIAP2
Chain of cIAP2-BIR3 (Q13489 238-349): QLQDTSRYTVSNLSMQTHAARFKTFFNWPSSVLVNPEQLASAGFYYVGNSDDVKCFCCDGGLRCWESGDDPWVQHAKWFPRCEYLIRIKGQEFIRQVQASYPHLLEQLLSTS

cIAP1-BIR3 = cIAP1-BIR3 (Homo sapiens (Human), UniProt Q13490); assay: BIR binding assay (FRET competition), cIAP1 BIR3; settings: for cIAP1 BIR3 vs BIR2 separation window: fold separation (FS) for cIAP1
Chain of cIAP1-BIR3 (Q13490 253-363): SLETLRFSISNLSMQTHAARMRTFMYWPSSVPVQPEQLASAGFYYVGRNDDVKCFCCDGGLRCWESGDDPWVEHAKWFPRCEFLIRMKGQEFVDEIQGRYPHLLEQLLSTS
How it was run: as §1

cIAP1-BIR2 = cIAP1-BIR2 (Homo sapiens (Human), UniProt Q13490); assay: BIR binding assay (FRET competition), cIAP1 BIR2
Chain of cIAP1-BIR2 (Q13490 173-257): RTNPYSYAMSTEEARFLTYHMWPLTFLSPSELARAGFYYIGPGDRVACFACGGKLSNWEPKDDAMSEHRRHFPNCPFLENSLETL
How it was run: as §1

XIAP-BIR3 = XIAP-BIR3 (Homo sapiens (Human), UniProt P98170); assay: BIR binding assay (FRET competition), XIAP BIR3; settings: for XIAP BIR3 vs BIR2 separation window: fold separation (FS) for XIAP
Chain of XIAP-BIR3 (P98170 241-356): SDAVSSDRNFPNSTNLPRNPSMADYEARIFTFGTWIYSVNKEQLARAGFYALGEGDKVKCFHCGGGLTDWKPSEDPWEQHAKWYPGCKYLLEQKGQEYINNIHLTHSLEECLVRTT
How it was run: as §1

[2] = FRET competition binding, read-out: XIAP BIR2 (pIC50) (converted)
[3] = FRET competition, read-out: XIAP BIR2 (pIC50) (converted)

Chain of XIAP-BIR2 (P98170 124-240): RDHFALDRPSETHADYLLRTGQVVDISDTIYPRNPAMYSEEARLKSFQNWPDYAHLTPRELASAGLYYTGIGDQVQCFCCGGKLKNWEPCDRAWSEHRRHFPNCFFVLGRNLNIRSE

Compound	IC50 (XIAP-BIR2; [2]) [µM]	EC50 [1] [µM]	IC50 (cIAP2-BIR2) [µM]	IC50 (cIAP2-BIR3) [µM]	cIAP2 BIR3 vs BIR2 separation window (cIAP2-BIR3)	IC50 (cIAP1-BIR3) [µM]	cIAP1 BIR3 vs BIR2 separation window (cIAP1-BIR3)	IC50 (cIAP1-BIR2) [µM]	IC50 (XIAP-BIR3) [µM]	XIAP BIR3 vs BIR2 separation window (XIAP-BIR3)	XIAP BIR2 (pIC50) (XIAP-BIR2; FRET competition binding)	cIAP1 BIR3 (pIC50) (cIAP1-BIR3; FRET competition binding)	IC50 (XIAP-BIR2; [3]) [µM]	IC50 (XIAP-BIR2) [µM]
C[C@@H]1CN(CC(=O)N2CC(C)(C)c3[nH]c(=O)c(Cc4ccc(F)cc4)cc32)[C@@H](CN2CCC[C@H](NC(=O)Cc3cccc(CC(=O)N[C@H]4CCCN(C[C@H]5CN[C@H](C)CN5CC(=O)N5CC(C)(C)c6[nH]c(=O)c(Cc7ccc(F)cc7)cc65)C4)c3)C2)CN1 [Example 41, 2,2′-(1,3-phenylene)bis(N-((S)-1-(((2R,5R)-1-(2-(6-(4-fluorobenzyl)-3,3-dimethyl-5-oxo-2,3,4,5-tetrahydro-1H-pyrrolo[3,2-b]pyridin-1-yl)-2-oxoethyl)-5-methylpiperazin-2-yl)methyl)piperidin-3-yl)acetamide)]	10 to 51.3	0.316 to 3.31	3.16 to 10	0.0316 to 0.501	+++ (10,000>FS>1,000)	0.0316 to 0.501	+++ (10,000>FS>1,000)	3.16 to 10	0.0316 to 0.501	+++ (10,000>FS>1,000)	–	–	–	–
C[C@@H]1CN(CC(=O)N2CC(C)(C)c3[nH]c(=O)c(Cc4ccc(F)cc4)cc32)[C@@H](CN2CCO[C@H](COc3ccccc3Oc3ccccc3OC[C@@H]3CN(C[C@H]4CN[C@H](C)CN4CC(=O)N4CC(C)(C)c5[nH]c(=O)c(Cc6ccc(F)cc6)cc54)CCO3)C2)CN1 [Example 68, 1,1′-(2,2′-((3R,3′R,6R,6′R)-(((2S,2'S)-(((oxybis(2,1-phenylene))bis(oxy))bis(methylene))bis(morpholine-2,4-diyl))bis(methylene))bis(3-methylpiperazine-6,1-diyl))bis(acetyl))bis(6-(4-fluorobenzyl)-3,3-dimethyl-1,2,3,4-tetrahydro-5H-pyrrolo[3,2-b]pyridin-5-one)]	10 to 51.3	0.00049 to 0.0126	1 to 3.16	0.00794 to 0.0158	+++ (10,000>FS>1,000)	0.0158 to 0.0316	+++ (10,000>FS>1,000)	3.16 to 10	0.00794 to 0.0158	+++ (10,000>FS>1,000)	–	–	–	–
C[C@@H]1CN(CC(=O)N2CC(C)(C)c3[nH]c(=O)c(Cc4ccc(F)cc4)cc32)[C@@H](CN2CCC[C@@H](NC(=O)CCCCCCC(=O)N[C@@H]3CCCN(C[C@H]4CN[C@H](C)CN4CC(=O)N4CC(C)(C)c5[nH]c(=O)c(Cc6ccc(F)cc6)cc54)C3)C2)CN1 [Example 44, N^1,N^8-bis((R)-1-(((2R,5R)-1-(2-(6-(4-fluorobenzyl)-3,3-dimethyl-5-oxo-2,3,4,5-tetrahydro-1H-pyrrolo[3,2-b]pyridin-1-yl)-2-oxoethyl)-5-methylpiperazin-2-yl)methyl)piperidin-3-yl)octanediamide]	–	0.316 to 3.31	10 to 51.3	0.0158 to 0.0316	++++ (FS>10,000)	–	+++ (10,000>FS>1,000)	10 to 51.3	0.0158 to 0.0316	++++ (FS>10,000)	+ (4.29<pIC50<=5.00)	+ (7.50>pIC50>=6.30)	–	–
C[C@@H]1CN(CC(=O)N2CC(C)(C)c3[nH]c(=O)c(Cc4ccc(F)cc4)cc32)[C@@H](CN2CCO[C@H](C(=O)N3CCCN(C(=O)[C@@H]4CN(C[C@H]5CN[C@H](C)CN5CC(=O)N5CC(C)(C)c6[nH]c(=O)c(Cc7ccc(F)cc7)cc65)CCO4)CC3)C2)CN1 [Example 131, 1,1′-(2,2′-((3R,3′R,6R,6′R)-(((2S,2'S)-(1,4-diazepane-1,4-dicarbonyl)bis(morpholine-2,4-diyl))bis(methylene))bis(3-methylpiperazine-6,1-diyl))bis(acetyl))bis(6-(4-fluorobenzyl)-3,3-dimethyl-1,2,3,4-tetrahydro-5H-pyrrolo[3,2-b]pyridin-5-one)]	10 to 51.3	0.0126 to 0.0631	1 to 3.16	0.00794 to 0.0158	+++ (10,000>FS>1,000)	0.0316 to 0.501	++ (1,000>FS>100)	1 to 3.16	0.0158 to 0.0316	++++ (FS>10,000)	–	–	–	–
C[C@@H]1CN(CC(=O)N2CC(C)(C)c3ncc(Oc4ccc(F)cc4)cc32)[C@@H](CN2CCO[C@H](COc3cccc(OC[C@@H]4CN(C[C@H]5CN[C@H](C)CN5CC(=O)N5CC(C)(C)c6ncc(Oc7ccc(F)cc7)cc65)CCO4)c3)C2)CN1 [Compound 142, 1-[6-(4-fluorophenoxy)-3,3-dimethyl-2H-pyrrolo[3,2-b]pyridin-1-yl]-2-[(2R,5R)-2-[[(2S)-2-[[3-[[(2S)-4-[[(2R,5R)-1-[2-[6-(4-fluorophenoxy)-3,3-dimethyl-2H-pyrrolo[3,2-b]pyridin-1-yl]-2-oxo-ethyl]-5-methyl-piperazin-2-yl]methyl]morpholin-2-yl]methoxy]phenoxy]methyl]morpholin-4-yl]methyl]-5-methyl-piperazin-1-yl]ethanone]	–	0.0126 to 0.0631	–	0.0158 to 0.0316	–	0.0158 to 0.0316	+++ (10,000>FS>1,000)	10 to 51.3	0.0316 to 0.501	+++ (10,000>FS>1,000)	–	–	10 to 51.3	–
C[C@@H]1CN(CC(=O)N2CC(C)(C)c3[nH]c(=O)c(Oc4ccc(Cl)cc4)cc32)[C@@H](CN2CCO[C@H](C(=O)NCc3ccc(CNC(=O)[C@@H]4CN(C[C@H]5CN[C@H](C)CN5CC(=O)N5CC(C)(C)c6[nH]c(=O)c(Oc7ccc(Cl)cc7)cc65)CCO4)cc3)C2)CN1 [Compound 182, (2S,2′S)-N,N′-(1,4-phenylenebis(methylene)) bis(4-(((2R,5R)-1-(2-(6-(4-chlorophenoxy)-3,3-dimethyl-5-oxo-2,3,4,5-tetrahydro-1H-pyrrolo[3,2-b]pyridin-1-yl)-2-oxoethyl)-5-methylpiperazin-2-yl)methyl)morpholine-2-carboxamide)]	–	0.0631 to 0.316	3.16 to 10	0.00138 to 0.00794	+++ (10,000>FS>1,000)	0.00794 to 0.0158	–	–	0.0316 to 0.501	+++ (10,000>FS>1,000)	–	–	10 to 51.3	–
C[C@@H]1CN(CC(=O)N2CC(C)(C)c3[nH]c(=O)c(Cc4ccc(F)cc4)cc32)[C@@H](CN2CCO[C@H](COc3ccc(Oc4cccc(Oc5ccc(OC[C@@H]6CN(C[C@H]7CN[C@H](C)CN7CC(=O)N7CC(C)(C)c8[nH]c(=O)c(Cc9ccc(F)cc9)cc87)CCO6)cc5)c4)cc3)C2)CN1 [Example 60, 1,1′-(2,2′-((3R,3′R,6R,6′R)-(((2S,2'S)-((((1,3-phenylenebis(oxy))bis(4,1-phenylene))bis(oxy))bis(methylene))bis(morpholine-2,4-diyl))bis(methylene))bis(3-methylpiperazine-6,1-diyl))bis(acetyl))bis(6-(4-fluorobenzyl)-3,3-dimethyl-1,2,3,4-tetrahydro-5H-pyrrolo[3,2-b]pyridin-5-one)]	–	0.0126 to 0.0631	10 to 51.3	0.0158 to 0.0316	++++ (FS>10,000)	0.0316 to 0.501	–	–	0.0316 to 0.501	++++ (FS>10,000)	–	–	–	10 to 51.3

Source: patent US20250326771A1, “PIPERAZINE DERIVATIVES USEFUL IN HIV THERAPY” (VIIV HEALTHCARE COMPANY, priority 2022, published 2025)
